Patent publication US7294330B2, “β-glucuronidase inhibitors for use in deodorants and antiperspirants” (priority 2001, dated 2007)
Counter-ions that a name gives are not always drawn. Like-named read-outs stand apart in the source and are kept apart here.

Target: T1, β-glucuronidase (Sigma) (EC 3.2.1.31) from E. coli (Escherichia coli, UniProt P05804)
T1 construct: purchased Sigma G-7396
Experiment: biochemical
Details: for remaining activity at 0.001 %: test concentration 0.001 %
Procedure: Investigation of the inhibitory action of the β-glucuronidase inhibitors (in vitro)
Since the skin-relevant β-glucuronidase was not available, a commercially available β-glucuronidase (Sigma) (EC 3.2.1.31) from E. coli served as the model enzyme for testing the inhibitory action of the inhibitors used according to the invention. The tests were carried out with the β-glucuronidase enzyme assay product no. G-7396 from Sigma in accordance with the instructions in the Sigma Quality Control Test Procedure datasheet.
For the evaluation, the phenolphthalein formed from the substrate phenolphthalein glucuronide by β-glucuronidase was determined spectrophotometrically (λ=540 nm).
The reaction solutions of 300 μl, which were temperature-controlled at a reaction temperature of 37° C., comprised 30 mM potassium phosphate buffer with 0.04% of albumin (pH 6.8), 0.5 mM phenolphthalein glucuronide (substrate) and a starting concentration of 40 U/ml (=12 U) of β-glucuronidase. The unit U of the enzyme activity was defined such that 1 U of β-glucuronidase hydrolyses 1.0 μmol of phenolphthalein glucuronide per minute at pH 6.8 and 37° C.
The reaction was started by addition of the enzyme and incubation was carried out for 30 min at 37° C. The reaction was then stopped with 3.5 times the volume of a 200 mM glycine solution of pH 10.4. In the photometric end point determination, the amount of phenolphthalein liberated was determined at the wavelength of λ=540 nm and at 37° C.
In batches with inhibitor, 0.2 ml of the appropriately concentrated reagents and 0.1 ml of the inhibitor, dissolved in water, were mixed. In each case a concentration series of the inhibitor was tested here. The absorption (A) here is a measure of the activity of the enzyme (ΔA). The activity of the enzyme in the absence of an inhibitor (ΔA1) was set at 100% as the reference. Under analogous conditions, the activities were determined in the presence of an inhibitor (ΔA2). The inhibitory action of the inhibitor was shown as the residual activity of the enzyme activity, calculated in accordance with the equation 100%−(ΔA2)/(ΔA1)%.

[1] = 0.5 h, concentration in the test 0.01 % (head of grid column 4, first sub-table), 30 min, 37° C., pH 6.8, read-out: Residual activity
[2] = 0.5 h, test concentration 0.01 %, 30 min, 37° C., pH 6.8, read-out: Residual activity
[3] = 0.5 h, test concentration 0.10 %, 30 min, 37° C., pH 6.8, read-out: Residual activity
[4] = 0.5 h, test concentration 1.00 %, 30 min, 37° C., pH 6.8, read-out: Residual activity
[5] = test concentration 0.10 %, 30 min, 37° C., pH 6.8
[6] = test concentration 0.50 %, 30 min, 37° C., pH 6.8
[7] = 0.5 h, pH 6.8, read-out: Residual activity
[8] = 0.5 h, 30 min, 37° C., pH 6.8, read-out: Residual activity
[9] = test concentration 0.01 %, 30 min, 37° C., pH 6.8
[10] = test concentration 1.00 %, 30 min, 37° C., pH 6.8
[11] = test concentration 0.08 %, 30 min, 37° C., pH 6.8
[12] = test concentration 2.00 %, 30 min, 37° C., pH 6.8

T1 sequence (P05804 whole entry): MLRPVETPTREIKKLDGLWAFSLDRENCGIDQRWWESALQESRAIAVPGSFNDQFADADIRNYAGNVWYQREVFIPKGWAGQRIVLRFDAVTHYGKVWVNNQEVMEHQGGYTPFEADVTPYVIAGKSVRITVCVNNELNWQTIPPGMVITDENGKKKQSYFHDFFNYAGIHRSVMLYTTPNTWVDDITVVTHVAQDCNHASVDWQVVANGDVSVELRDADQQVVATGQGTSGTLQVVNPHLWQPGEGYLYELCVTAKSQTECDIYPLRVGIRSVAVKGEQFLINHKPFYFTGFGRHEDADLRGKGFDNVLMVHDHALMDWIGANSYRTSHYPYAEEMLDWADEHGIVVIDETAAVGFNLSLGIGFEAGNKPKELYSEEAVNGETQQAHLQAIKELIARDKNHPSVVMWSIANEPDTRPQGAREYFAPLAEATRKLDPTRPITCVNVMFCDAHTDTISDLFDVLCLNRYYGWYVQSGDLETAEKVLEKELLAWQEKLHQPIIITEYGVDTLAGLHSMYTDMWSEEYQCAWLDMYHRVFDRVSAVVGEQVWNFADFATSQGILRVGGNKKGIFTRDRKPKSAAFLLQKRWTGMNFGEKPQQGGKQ

`C=C(C)C1CCC(C)CC1O` (stereo not shown) [Coolact P, 5-methyl-2-(1-methylvinyl)cyclohexan-1-ol] gave a remaining activity at 0.0005 % (0.5 h, concentration in the test 0.0005 % (head of grid column 3, first sub-table), 30 min, 37° C., pH 6.8, read-out: Residual activity) of 184% and a remaining activity at 0.01 % [1] of 38%.
Work on `O.O.O.O.O.[Cl][Cu][Cl]` [CuCl2 × 5H2O, CuCl2·5 H2O] yielded a Residual activity (test concentration 0.000005 %, 30 min, 37° C., pH 6.8) of 105%, a Residual activity (test concentration 0.00005 %, 30 min, 37° C., pH 6.8) of 39% and a Residual activity (test concentration 0.00025 %, 30 min, 37° C., pH 6.8) of 7%.
Work on `CC(O)(P(=O)(O)O)P(=O)(O)O` [Dequest 2016D, 1-Hydroxyethane-1,1-diphosphonic acid tetrasodium salt] yielded a remaining activity at 8e-05 % (0.5 h, concentration in the test 0.00008 % (head of grid column 1, first sub-table), 30 min, 37° C., pH 6.8, read-out: Residual activity) of 99%, a remaining activity at 0.0008 % (0.5 h, concentration in the test 0.0008 % (head of grid column 2, first sub-table), 30 min, 37° C., pH 6.8, read-out: Residual activity) of 95% and a remaining activity at 0.01 % [1] of 52%.
Work on `O=C(O)C(O)c1ccc(O)cc1` (stereo not shown) [Dermosoft HMA, p-Hydroxymandelic acid sodium salt] yielded a remaining activity at 0.01 % [2] of 110%, a remaining activity at 0.1 % [3] of 99% and a remaining activity at 1 % [4] of 56%.
With `C=CCc1ccc(O[C@@H]2O[C@H](CO)[C@@H](O)[C@H](O)[C@H]2O)c(OC)c1` [Eugenyl Glucoside, 2-methoxy-4-(2-propenyl)phenyl β-D-glucoside] the Residual activity [5] was 53% and the Residual activity [6] was 12%.
Molecule `NCC(=O)O` [Glycine, glycine] has a remaining activity at 0.01 % [7] of 95%, a remaining activity at 0.1 % [7] of 91% and a remaining activity at 0.5 % [7] of 70%. It also gave a remaining activity at 1 % [7] of 52% and a remaining activity at 2 % [7] of 32%.
In the case of `CC(C)c1cccc(=O)c(O)c1` [Hinokitiol (DMSO), 2-hydroxy-4-isopropyl-2,4,6-cycloheptatrien-1-one], the remaining activity at 0.001 % [8] is reported as 112%, the remaining activity at 0.01 % [2] is reported as 156% and the remaining activity at 0.1 % [3] is reported as 30%. For the same molecule, the remaining activity at 1 % [4] was 2%.
Work on `O=C([O-])C(O)C(O)C(O)C(O)C(O)CO.O=C([O-])C(O)C(O)C(O)C(O)C(O)CO.[Mg+2]` (stereo not shown) [Magnesium glucoheptonate, magnesium glucoheptonate] yielded a Residual activity [9] of 55% and a Residual activity [5] of 50%.
Molecule `C[C@@H]1O[C@@H](O[C@H]2[C@H](Oc3cc(O)c4c(c3)O[C@H](c3ccc(O)cc3)CC4=O)O[C@H](CO)[C@@H](O)[C@@H]2O)[C@H](O)[C@H](O)[C@H]1O` [Naringin, naringenin 7-rhamnoglucoside] has a remaining activity at 0.001 % [8] of 103%, a remaining activity at 0.01 % [2] of 94% and a remaining activity at 0.1 % [3] of 47%.
With `OCCc1ccccc1` [Phenylethyl alcohol, 2-phenylethyl alcohol] the remaining activity at 0.01 % [2] was 121%, the remaining activity at 0.1 % [3] was 227% and the remaining activity at 1 % [4] was 49%.
Work on `O=P(O)(O)O[C@H]1[C@H](OP(=O)(O)O)[C@@H](OP(=O)(O)O)[C@H](OP(=O)(O)O)[C@@H](OP(=O)(O)O)[C@H]1OP(=O)(O)O` [Phytic acid, myo-inositol-hexaphosphoric acid] yielded a remaining activity at 0.01 % [2] of 90%, a remaining activity at 0.05 % (0.5 h, test concentration 0.05 %, 30 min, 37° C., pH 6.8, read-out: Residual activity) of 86% and a remaining activity at 0.1 % [3] of 71%. It also gave a remaining activity at 0.38 % (0.5 h, test concentration 0.38 %, 30 min, 37° C., pH 6.8, read-out: Residual activity) of 68% and a remaining activity at 1 % [4] of 16%.
`CC(O)C(=O)[O-].[K+]` (stereo not shown) [Purasal P Hipure 60, Potassium lactate] gave a Residual activity [9] of 96%, a Residual activity [5] of 88% and a Residual activity [10] of 52%.
Work on `CC(=O)CCc1ccc(O[C@@H]2O[C@H](CO)[C@@H](O)[C@H](O)[C@H]2O)cc1` [Raspberry ketone glucoside, 4-(γ-ketobutyl)phenyl β-D-glucoside] yielded a Residual activity [6] of 125% and a Residual activity [10] of 49%.
In the case of `O=C(/C=C/c1ccc(O)c(O)c1)O[C@H](Cc1ccc(O)c(O)c1)C(=O)O` [Rosemary acid, rosemary acid], the Residual activity (test concentration 0.0008 %, 30 min, 37° C., pH 6.8) is reported as 48%, the Residual activity (test concentration 0.008 %, 30 min, 37° C., pH 6.8) is reported as 15% and the Residual activity [11] is reported as 19%. It also gave a Residual activity (test concentration 8 · 10^−5 %, 30 min, 37° C., pH 6.8) of 86%.
`O=C([O-])CN(CC(=O)[O-])CC(=O)[O-].[Na+].[Na+].[Na+]` [Trilon A, Nitrilotriacetic acid 3 Na, reference compound] gave a Residual activity [9] of 100%, a Residual activity [5] of 90% and a Residual activity [6] of 71%. It also gave a Residual activity [10] of 59% and a Residual activity [12] of 52%.
Work on `O=C([O-])CN(CCN(CC(=O)[O-])CC(=O)[O-])CC(=O)[O-].[Na+].[Na+].[Na+].[Na+]` [Trilon B, EDTA-4 Na, reference compound] yielded a Residual activity [9] of 108%, a Residual activity [5] of 86% and a Residual activity [6] of 57%. It also gave a Residual activity [10] of 51% and a Residual activity [12] of 43%.
For `CC(C(=O)[O-])N(CC(=O)[O-])CC(=O)[O-].[Na+].[Na+].[Na+]` (stereo not shown) [Trilon M, Methylglycinediacetic acid trisodium salt], the Residual activity [9] was 99%, the Residual activity [5] was 91% and the Residual activity [10] was 55%.
With `O=C([O-])CC(O)(CC(=O)[O-])C(=O)[O-].[K+].[K+].[K+]` [Tripotassium citrate, tripotassium citrate] the Residual activity [9] was 97%, the Residual activity [5] was 86% and the Residual activity [10] was 47%.
`CC(O)C(=O)[O-].CC(O)C(=O)[O-].[Zn+2]` (stereo not shown) [Zinc lactate, zinc lactate] was tested, and the Residual activity (test concentration 0.005 %, 30 min, 37° C., pH 6.8) was 77%, the Residual activity (test concentration 0.05 %, 30 min, 37° C., pH 6.8) was 55% and the Residual activity [11] was 30%. The Residual activity [6] was 3%.
With `O=C1CC[C@@H](C(=O)[O-])N1.O=C1CC[C@@H](C(=O)[O-])N1.[Zn+2]` [Zincidone] the Residual activity [9] was 79%, the Residual activity [5] was 8% and the Residual activity [10] was 3%.
For Copper gluconate [Givobio GCU], the Residual activity [9] was 81% and the Residual activity [5] was 50%.
zinc gluconate showed a Residual activity [9] of 88%, a Residual activity [5] of 54% and a Residual activity (test concentration 0.25 %, 30 min, 37° C., pH 6.8) of 3%. It also gave a Residual activity [10] of 1%.
